Laboratory results as given in publication PMC10340464, “Identification of a Novel SSTR3 Full Agonist for the Treatment of Nonfunctioning Pituitary Adenomas” (Cancers, 2023).

Tests used:
[1] = system: HA-SSTR2; assay: SSTR2 internalization in HEK293 cells, confocal microscopy; type: cell-based, human; settings: 1 µM agonist, 30 min 37 °C
Protocol: HEK293 cells obtained from DSMZ (Braunschweig, Germany) were transfected with plasmid encoding […] HA-tagged SSTR2, SSTR3 or SSTR5 receptors.
HEK293 cells stably expressing HA-tagged hSSTR cultures were preincubated with anti-HA antibody for 2 h at 4 °C and then exposed to 1 µM agonist for 30 min at 37 °C before fixing and further labeling with Alexa488-conjugated secondary antibody. After mounting with Roti®-MountFluorCare DAPI, cultures were examined using a Zeiss LSM510 META laser scanning confocal microscope (Zeiss, Jena, Germany) (see Supplementary Materials for details).
GH produced by primary cultures was tested by ELISA assay using Rat Growth Hormone Biotrak Enzyme immunoassay Mouse/Rat Growth ELISA (DSL-10-72100) or Rat/Mouse Growth Hormone ELISA (Millipore EZRMGH-45K) diluting supernatants 1:20, according to manufacturer’s instructions. […]
(§1) U2OS recombinant cell lines were obtained from Innoprot (Derio, Spain). […] Nuclei were stained using DAPI (2 μg/ml) and the ﬂuorescence was measured using a BD Pathway 855 High-Content Bioimager from Becton Dickinson. The receptor internalization was calculated using AttoVision Software. […]
(§2) Agonist activity of test compounds was calculated relatively to positive control

[2] = at high doses; ref manuscript in preparation; cited from earlier work
From the text: One important aspect relates to safety margins. Hyperglycemia is a common side effect of SSTR panagonists such as Pasireotide. […] What remains to be ascertained clinically is whether the higher agonistic activity on SSTR3 may allow us to define a dose at which full receptor engagement is observed in the absence of significant hyperglycemia.

[3] = system: NFPAs of MENX (homozygous mutant) rats; assay: In vivo efficacy against endogenous NFPAs in MENX rats; design: species or system rat; settings: 12.5 mg/kg s.c. every 14 days, 56 days
Protocol: Tumor monitoring in rats was conducted using MRI at day 0 (pretreatment) and every 14 days post-treatment (days 14, 28, 42, 56). MRI was performed on a 7T preclinical scanner (Bruker BioSpin MRI GmbH, Ettlingen, Germany) using previously published procedures suitable to visualize the rat pituitary tumors. In the T2 weighted datasets, regions of interest (ROIs) were manually segmented around the adenomas in every slice where they appeared; tumor volumes were finally calculated from the data (area of particular ROIs and slice thickness) using an implemented algorithm in Osirix/Horos (Pixmeo SARL/Horos Project) as previously described.
RNA was extracted using RNeasy Mini Kit (Qiagen, Cluj-Napoca, Romania) following the manufacturer’s instructions. Total RNA concentration and purity was assessed using Nanodrop 2000 spectrophotometer (Thermo Scientific, Waltham, MA, USA). Total RNA was retrotranscribed using random hexamer primers and the cDNA First Strand Synthesis kit (Thermo Scientific). Details regarding the quantitative PCR (qPCR) procedure used to determine the absolute expression levels of the different somatostatin receptor genes (Sstr1-5) have been previously reported. Specific sets of primers for these genes have been previously validated and reported. To control for the amount of RNA and for the efficiency of the retrotranscription reaction, mRNA copy numbers of the different transcripts analyzed were adjusted by β-actin (ACTB) expression (used as housekeeping gene).
Ki67-positive tumor cells per 100,000 µm^2 were counted under the microscope in 3 independent areas for each tumor sample.
Linear mixed-effects (LME) models were applied for longitudinal analysis of tumor volume growth, with absolute tumor volume at day 0 used for scaling subsequent measurements of each individual, as previously reported. Relative volumes were transformed by natural logarithms for use as model outcomes in order to meet the normal distributional assumptions. Linear and quadratic growth predictors and interactions were considered for significance testing, performed by the F-test, with results presented as the mean ± standard error of the mean (SEM). Statistical significance between two series of data was determined by one-way ANOVA. A p value < 0.05 was considered statistically significant.

[4] = species, matrix, method and reference not given; cited from earlier work
[5] = system: SSTR5-tGFP; assay: Receptor internalization in U2OS-transfected cells (SSTR5-tGFP); type: cell-based, human; settings: 7 h, high-content imaging, n = 3, method: percentage of activity relative to SST28 10^−6 M
Protocol: Compounds were tested at five concentrations (10^−5, 10^−6, 10^−7, 10^−8, 10^−9 M) in comparison to untreated cells.
SST agonists were added to U2OS recombinant cell lines in OptiMeM medium (Life technologies 51985-034, Monza, Italy) for 3 h (SSTR2, SSTR3) or 7 h (SSTR5) (n = 3). After formaldehyde fixation, nuclei were stained using DAPI (2 µg/mL), and the fluorescence was measured with BD Pathway 855 High-Content Bioimager from Becton Dickinson. The receptor internalization was calculated using AttoVision 1.6 Software. Approximately 500 cells per field were analyzed. […]
(Invitrogen, Carlsbad, CA). Stable transfectants were selected in the presence of 500 µg/ml G-418. […]
% picric acid in phosphate buﬀer (pH 6.9) for 30 minutes at room temperature (RT). […]
3.2. U2OS human cell lines transfected with human receptors (SSTR2-tGFP, SSTR3-tGFP,
Compounds were tested at ﬁve d iﬀerent concentrations (10-5, 10-6, 10-7, 10-8, 10^-9 M) in comparison to untreated cells.
as §1, §2

[6] = molecular target: T1, hSSTR3 (Homo sapiens, UniProt P32745); assay: Radioligand binding to human SSTR3; settings: from binding IC50
T1 construct: expressed in transfected cells; host or cells: CHO-K1 (membranes)
T1 sequence (P32745 whole entry): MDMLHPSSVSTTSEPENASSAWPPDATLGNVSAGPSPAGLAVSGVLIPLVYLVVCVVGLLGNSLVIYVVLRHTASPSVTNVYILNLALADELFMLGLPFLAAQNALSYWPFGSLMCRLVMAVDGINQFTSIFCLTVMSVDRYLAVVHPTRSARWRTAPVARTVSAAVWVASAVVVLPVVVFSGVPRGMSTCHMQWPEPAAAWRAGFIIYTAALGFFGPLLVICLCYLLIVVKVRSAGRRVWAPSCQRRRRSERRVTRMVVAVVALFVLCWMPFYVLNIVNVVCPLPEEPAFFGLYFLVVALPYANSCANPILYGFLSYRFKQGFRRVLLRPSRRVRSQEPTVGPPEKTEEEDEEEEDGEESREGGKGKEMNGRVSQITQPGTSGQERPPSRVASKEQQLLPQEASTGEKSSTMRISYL
Protocol: Data were analyzed with XLfit (IDBS) software (version 5.3.1.3) using nonlinear regression applied to a sigmoidal dose–response model. Agonist activity of test compounds is expressed as a percentage of the activity of the reference agonist at its EC100 concentration.
After 60 min at 25°C in a water bath, samples were ﬁltered over GF/B ﬁlters (Perkin
Elmer, 6005177) presoaked in 0.5% PEI for 2h at RT) with a Filtermate Harvester (Perkin
Elmer ). Filters were washed 6 times with 0.5 ml of ice-cold ﬁltration buﬀer, incubated 15
min. on an orbital shaker with 50 µl of Microscint 20 (Packard) and counted for
radioactivity with a TopCountTM or MicroBetaTM for 1 min/well.
Dose-response curve were performed for each SSTR (agonist range 10-11 – 3x10-7 M),
Each point was performed in duplicate2,3
Dose-response data from test compounds were analysed with XLﬁt (IDBS) software
using nonlinear regression applied to a sigmoidal dose-response model.
Agonist activity of test compounds is expressed as a percentage of the activity of the
reference agonist at its EC100 concentration.

## COc1cc2cccc(OC)c2cc1C[C@H]1NC(=O)[C@H](Cc2ccc(O)cc2)NC(=O)[C@@H]2C[C@@H](OC(=O)NCCN)CN2C(=O)[C@H](Cc2ccccc2)NC(=O)[C@H](Cc2ccc(OCc3ccccc3)cc2)NC(=O)[C@H](CCCCN)NC1=O [ITF2984, Cyclo[Tyr(Bn)-Phe-Pro(4-OCONH(CH2)2NH2)-Tyr-3,8-diMeONal-Lys]]
[1]
  internalization of SSTR2 in transfected HEK293 cells: partial internalization
[2]
  glycemia in clinical studies: increased glycemia
[3]; female MENX rats
  change in number of Ki67-positive cells versus placebo, female rats: −57%
[3]; female MENX rats, MRI every 14 days
  tumor volume during treatment (MRI), female rats: only a slight increase in tumor volume
[3]; female MENX rats, placebo 312
  number of Ki67-positive cells per area, average, female rats: 134 cells per 100,000 mm^2
[3]; male MENX rats
  change in number of Ki67-positive cells versus placebo, male rats: −33.5%
[3]; male MENX rats, placebo 375
  number of Ki67-positive cells per area, average, male rats: 250 cells per 100,000 mm^2
[4]
  Half-time life: 18 h
[5]; 10^−5 M
  Receptor internalization in U2OS-transfected cells, SSTR5, at 10^−5 M: 34.6
[5]; 10^−6 M
  Receptor internalization in U2OS-transfected cells, SSTR5, at 10^−6 M (value in brackets): 42.0
[6]
  improved affinity for SSTR3 compared to Octreotide or Pasireotide: 10 fold
